From patent EP0565377B1, “Therapeutic agents for use in the treatment of Parkinson's Disease” (Kyowa Hakko Kogyo Co., Ltd., priority 1992, dated 1993) come the findings set out here.

Each structure is given as a SMILES string.

For series [1], the system named is Parkinson's Disease Model in Mouse. The series is described as follows: Effect on locomotor activity of Parkinson's disease model in mouse (MPTP-treated mice, Automex-II horizontal activity). It counts as in vivo, male C57BL/6 mice. As for the experimental part:
1-Methyl-4-phenyl-1,2,3,6-tetrahydropyridine (MPTP) causes symptoms of Parkinson's disease in humans [Science, 219, 979 (1983)]. It is reported that an experimental Parkinson's disease model was obtained by administering MPTP to mice [Science, 224, 1451 (1984)]. If a compound is effective on the experimental Parkinson's disease model in mouse, the compound can be expected to have a therapeutic effect on Parkinson's disease.
The experiment was performed by using several groups of 7-weeks-old male C57BL/6 mice (weighing 20 to 21 g, Japan SLC), each group consisting of 8 mice. MPTP (Aldrich Chemical Co., Inc.) dissolved in a physiological saline solution (Otsuka Pharmaceutical Co., Ltd.) was intraperitoneally administered to each mouse once a day for five consecutive days at a dose of 30 mg/kg. A test compound was suspended in injectable distilled water (Otsuka Phamaceutical Co., Ltd.) containing Tween 80 [polyoxyethylene (20) sorbitan monooleate]. L-DOPA (Kyowa Hakko Kogyo Co., Ltd.) was suspended in 0.3% CMC (sodium carboxylmethylcellulose). Thirty minutes after the final MPTP administration, the test compound suspensions and the control suspension [injectable distilled water (Otsuka Pharmaceutical Co., Ltd.) containing Tween 80] containing no test compound were orally administered to separate groups of the mice (0.1 ml per 10 g of body weight). The amount of active movements (horizontal activity) of each mouse was measured by using Automex-II (Columbus Instruments International Corp.) for the period of 30 minutes starting 30 minutes after the administration of the test compound. The effect of the compounds was evaluated by comparing the average counts of the active movements of the test compound-administered groups with those of the control groups. A significant difference test was performed by using Student's t-test.

For another series, the system named is dd-strain male mice. The series is described as follows: Acute toxicity test (minimum lethal dose, oral). In kind it is in vivo. The note with it: oral administration, mortality seven days after administration, three mice per group. On the procedure:
Test compounds were orally administered to groups of dd-strain male mice weighing 20±1 g, each group consisting of three mice. Seven days after the administration, minimum lethal dose (MLD) of each compound was determined by observing the mortality.

In series [2] the test system is Haloperidol-Induced Catalepsy. The series is described as follows: Effect on haloperidol-induced catalepsy. It counts as in vivo, male ddY mice. The note with it: Table 4-1, test compound 10 mg/kg orally; for inhibition in vivo at 10 mg/kg: Mus musculus, po, 1 h, rate of decrease in total score based on control group, read-out: Remission Rate (%); for Number of the Animals Showing Remission: of 5 mice, catalepsy score not more than 4 points; for Total Score: total catalepsy score of 5 mice (25 points at the full), 0.3% CMC control 25. As for the experimental part:
The experiment was performed by using several groups of 5-weeks-old male ddY mice (weighing 22 to 24 g, Japan SLC), each group consisting of 5 mice. Haloperidol (Janssen Pharmaceutica) suspended in 0.3% CMC was intraperitoneally administered to each mouse at a dose of 1.0 mg/kg. Test compounds were suspended in 0.3% CMC or in injectable distilled water (Otsuka Pharmaceutical Co., Ltd.) containing Tween 80. L-DOPA (Kyowa Hakko Kogyo Co., Ltd.) and benserazide hydrochloride (Kyowa Hakko Kogyo Co., Ltd.) were suspended in 0.3% CMC. One hour after the haloperidol administration, the test compound suspensions and the control suspension [0.3% CMC or injectable distilled water (Otsuka Pharmaceutical Co., Ltd.) containing Tween 80] containing no test compound were orally administered to separate groups of the mice (0.1 ml per 10 g of body weight). One hour after the administration of the test compound, the forelimbs of each mouse and subsequently the hindlimbs of the same mouse were placed on a 4.5 cm-high, 1.0 cm-wide bar and catalepsy was estimated. All of the test compounds were orally administered at a dose of 10 mg/kg, and L-DOPA (100 mg/kg) and benserazide (25 mg/kg) were intraperitoneally administered together as a control experiment. The catalepsy score and the standard of judgment are shown below.
The effect of the compounds was evaluated by the total of the catalepsy scores of five mice in each group (25 points at the full). The groups wherein the total score was not more than 20 points were estimated to be effective. The number of the animals showing remission against catalepsy is the number of the mice for which the catalepsy score was not more than 4 points.

Where [3] appears, read: Table 3-5, test compound 40 mg/kg orally, normal control 2252 ±210.1, MPTP control 18 ± 8.4.
The mark [4] stands for this setting: Table 3-1, test compound 10 mg/kg orally, 30 min count starting 30 min after dosing, normal control 1875 ± 77.7, MPTP control 207 ± 85.5.

Regarding `C=CCn1c(=O)c2nc(/C=C/c3cc(OC)c(OC)c(OC)c3)[nH]c2n(CC=C)c1=O` [Compound 11, (E)-1,3-diallyl-8-(3,4,5-trimethoxystyryl) xanthine], the “Amount of Active Movements (average count ± S.E.M)” value (“Amount of Active Movements” for short) in series [1] (setting [3]) amounted to 20 ± 7.1 count. Moreover, in the series on dd-strain male mice, the “MLD” value is > 300 mg/kg. In addition, in series [2], the inhibition in vivo at 10 mg/kg amounted to 20%, the “Number of the Animals Showing Remission” value is 3 and the “Total Score” value came out at 20 points.
As for `CCn1c(=O)c2c(nc(/C=C/c3cc(OC)c(OC)c(OC)c3)n2C)n(CC)c1=O` [Compound 4, (E)-1,3-diethyl-7-methyl-8-(3,4,5-trimethoxystyryl)xanthine], the “Amount of Active Movements” value in series [1] (Table 3-2, test compound 10 mg/kg orally, normal control 2185 ±156.2, MPTP control 38 ± 24.2) was 961 ±164.7 count. In addition, the “MLD” value in the series with dd-strain male mice is on record as > 300 mg/kg. Moreover, in series [2], the inhibition in vivo at 10 mg/kg turned out to be 20%, the “Number of the Animals Showing Remission” value is reported as 4 and the “Total Score” value stood at 20 points.
Take `CCCn1c(=O)c2nc(/C=C/c3cc(OC)c(OC)c(OC)c3)[nH]c2n(CCC)c1=O` [Compound 9, (E)-1,3-dipropyl-8-(3,4,5-trimethoxystyryl) xanthine]: in series [1] (setting [3]), the “Amount of Active Movements” value came to 41 ± 18.0 count. In the series with dd-strain male mice, the “MLD” value is recorded as > 300 mg/kg.
Consider `COc1cc(/C=C/c2nc3c([nH]2)c(=O)n(C)c(=O)n3C)cc(OC)c1OC` [Compound 10, (E)-8-(3,4,5-trimethoxystyryl)theophylline], for which the “Amount of Active Movements” value in series [1] (setting [3]) is 32 ± 21.2 count. In addition, the “MLD” value in the series with dd-strain male mice is listed as > 300 mg/kg.
`CCCn1c(=O)c2c(nc(/C=C/c3ccc(OC)c(OC)c3)n2C)n(CCC)c1=O` [Compound 1, (E)-8-(3,4-dimethoxystyryl)-7-methyl-1,3-dipropylxanthine]: the “Amount of Active Movements” value in series [1] (setting [4]) was determined as 628 ±174.5 count. For the same compound, the “MLD” value in the series with dd-strain male mice is given as > 300 mg/kg. Also, in series [2], the inhibition in vivo at 10 mg/kg was determined as 48%, the “Number of the Animals Showing Remission” value is on record as 5 and the “Total Score” value is 13 points.
Consider `COc1cc(/C=C/c2nc3c(c(=O)n(C)c(=O)n3C)n2C)cc(OC)c1OC` [Compound 2, (E)-8-(3,4,5-trimethoxystyryl)caffeine], for which the “Amount of Active Movements” value in series [1] (setting [4]) came to 1134 ±267.0 count. In addition, in the series with dd-strain male mice, the “MLD” value was > 300 mg/kg. Besides, in series [2], the inhibition in vivo at 10 mg/kg was 56%, the “Number of the Animals Showing Remission” value worked out at 5 and the “Total Score” value is given as 11 points.
With `CCCn1c(=O)c2c(nc(/C=C/c3ccccc3)n2C)n(CCC)c1=O` [Compound 3, (E) -7-methyl-1,3-dipropyl-8-styrylxanthine], the “Amount of Active Movements” value in series [1] (Table 3-2, test compound 40 mg/kg orally, normal control 2185 ±156.2, MPTP control 38 ± 24.2) was 228 ± 82.6 count. In addition, the “MLD” value in the series with dd-strain male mice is given as > 300 mg/kg. In series [2], the inhibition in vivo at 10 mg/kg is 20%, the “Number of the Animals Showing Remission” value turned out to be 4 and the “Total Score” value turned out to be 20 points.
